Reference: patent US7229825B2, “Double-transfected cell line useful for the identification of transport inhibitors” (Deutches Krebsforschungszentrum Stiftung des Offentlichen …, priority 2001, dated 2007)
Where two headings read alike, the source gives them in different places.

Key:
[1] = molecular target: human MRP2 (Homo sapiens, UniProt Q92887); assay: Inhibition of [3H]LTC4 transport into HEK-MRP2 membrane vesicles; assay type: biochemical; conditions: inhibitor at 50 μM
[2] = test system: human OATP8 and MRP2 (MDCK-MRP2/OATP8 cells); assay: Inhibition of transcellular [3H]BSP transport in MDCK-MRP2/OATP8 cells; assay type: cell-based; conditions: 1 μM [3H]BSP, 30 min, 37° C.
Experimental: (§1) For transport assays MDCKII cells were grown on Transwell membrane inserts (24 mm diameter, 0.4 μm pore size, Corning Costar) at confluency for 3 days and induced with 10 mM sodium butyrate for 24 h. Cells were first washed with transport buffer (142 mM NaCl, 5 mM KCl, 1 mM KH2PO4, 1.2 mM MgSO4, 1.5 mM CaCl2, 5 mM glucose, and 12.5 mM HEPES, pH 7.3), subsequently, ^3H-labeled substrates were added in transport buffer either to the apical compartments (1 ml) or to the basolateral compartments (1.5 ml). After the time periods indicated, the radioactivity in the opposite compartments was measured. The intracellular accumulation of the radioactivity was determined by lysing the cells with 2 ml 0.2% SDS in water and measuring the radioactivity in cell lysates.
(§2) For inhibition studies the inhibitors were added simultaneously with [^3H]BSP into the basolateral compartments, with the exception of 1-chloro-2,4-dinitrobenzene (CDNB). In this case, MDCKII cells grown on Transwell membrane inserts were pre-incubated with CDNB in transport puffer in both apical and basolateral compartments for 20 min at room temperature. The transcellular transport was then started by replacing the buffer in the basolateral compartments by fresh buffer containing CDNB and [^3H]BSP.

[3] = test system: human OATP8 and MRP2 (MDCK-MRP2/OATP8 cells); assay: Transcellular transport of organic anions across MDCK-MRP2/OATP8 cells on Transwell membrane inserts; conditions: substrate in basolateral compartment, 37° C., apical compartment measured; MDCK-MRP2/OATP8 compared with MDCK-OATP8, MDCK-Co (and MDCK-MRP2) cells
Experimental: (§3) For transport assays MDCKII cells were grown on Transwell membrane inserts (24 mm diameter, 0.4 μm pore size, Corning Costar) at confluency for 3 days and induced with 10 mM sodium butyrate for 24 h. […] After the time periods indicated, the radioactivity in the opposite compartments was measured. The intracellular accumulation of the radioactivity was determined by lysing the cells with 2 ml 0.2% SDS in water and measuring the radioactivity in cell lysates.
(§4) To study the transcellular transport of Fluo-3, cells were incubated with 2 μM Fluo-3 in the basolateral compartments at 37° C. for 30 min.
(§5) To study the transcellular transport of rifampicin, cells were incubated with 50 μM rifampicin in the basolateral compartments at 37° C. for 30 min. To determine the concentration of rifampicin in the apical compartments its absorption at 475 nm was measured with a spectrophotometer (Ultrospec III, Amersham-Pharmacia, Freiburg, Germany). A calibration curve for the calculation of the concentrations of rifampicin was determined in the concentration range between 1 and 50 μM.

[4] = molecular target: T1, human OATP8 (MDCK-OATP8 cells) (Homo sapiens, UniProt Q9NPD5); assay: Inhibition of [3H]BSP accumulation and transport in MDCK-OATP8 cells; conditions: pre-incubation 20 min at room temperature, up to a concentration of 50 μM
T1 sequence (Q9NPD5 1-702): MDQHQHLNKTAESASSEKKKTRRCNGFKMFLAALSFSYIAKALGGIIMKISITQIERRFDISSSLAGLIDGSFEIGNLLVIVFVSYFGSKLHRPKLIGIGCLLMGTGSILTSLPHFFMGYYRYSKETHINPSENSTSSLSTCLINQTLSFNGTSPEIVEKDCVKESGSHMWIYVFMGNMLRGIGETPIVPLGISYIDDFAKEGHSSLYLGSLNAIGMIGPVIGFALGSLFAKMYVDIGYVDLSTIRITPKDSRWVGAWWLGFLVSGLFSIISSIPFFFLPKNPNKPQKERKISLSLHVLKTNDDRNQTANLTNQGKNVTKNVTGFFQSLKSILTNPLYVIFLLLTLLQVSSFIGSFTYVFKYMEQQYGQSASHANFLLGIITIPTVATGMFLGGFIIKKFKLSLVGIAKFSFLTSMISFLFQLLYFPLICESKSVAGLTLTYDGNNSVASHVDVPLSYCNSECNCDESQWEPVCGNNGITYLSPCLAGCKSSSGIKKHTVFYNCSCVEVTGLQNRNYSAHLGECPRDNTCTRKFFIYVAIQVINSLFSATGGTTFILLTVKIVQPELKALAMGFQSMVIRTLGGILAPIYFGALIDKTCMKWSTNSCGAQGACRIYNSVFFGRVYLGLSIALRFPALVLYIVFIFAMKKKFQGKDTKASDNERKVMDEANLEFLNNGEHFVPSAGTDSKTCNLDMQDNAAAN
Experimental: as §1, §2

[5] = test system: human OATP8 and MRP2 (MDCK-MRP2/OATP8 cells)
Experimental: as §3, §4, §5

[6] = test system: MDCKII cell lines; assay: Transcellular leakage of [14C]inulin carboxylic acid across MDCKII cell monolayers; assay type: cell-based, canine; conditions: 50 μM basolateral, 30 min, all four MDCKII cell lines
Experimental: The transcellular leakage was determined by incubating cells with 50 μM [^14C]inulin carboxylic acid in the basolateral compartments for 30 min and measuring the radioactivity in the apical compartments. For all four MDCKII cell lines used in this work the transcellular leakage was lower than 1%.

[7] = substrate: O=C1OC(c2ccc(O)c(S(=O)(=O)O)c2)(c2ccc(O)c(S(=O)(=O)O)c2)c2c(Br)c(Br)c(Br)c(Br)c21; assay: ATP-dependent transport of [3H]BSP into inside-out membrane vesicles from HEK-MRP2 cells; assay type: biochemical, human; conditions: other: BSP concentrations between 1 and 10 μM; pH 7.4; 37.0 °C
Experimental: Vesicle Transport Studies. Transport of [^3H]BSP into membrane vesicles was measured by the rapid filtration method (Keppler et al. 1998). Briefly, membrane vesicles (30 μg protein) were incubated in the presence of 4 mM ATP, 10 mM creatine phosphate, 100 μg/ml creatine kinase, and [^3H]BSP in an incubation buffer (250 mM sucrose, 10 mM Tris/HCl, pH 7.4) in a final volume of 55 μl at 37° C. Aliquots (15 μl) were taken at the indicated time points, diluted in 1 ml ice-cold incubation buffer, and immediately filtered through presoaked nitrocellulose membrane (0.2 μm pore size, Schleicher & Schüll, Dassel, Germany). Filters were rinsed twice with 5 ml of incubation buffer, dissolved in liquid scintillation fluid, and counted for radioactivity. In control experiments, ATP was replaced by an equal concentration of 5′-AMP. ATP-dependent transport was calculated by subtracting values obtained in the presence of 5′-AMP from those obtained in the presence of ATP.

## CO[C@H]1/C=C/O[C@@]2(C)Oc3c(C)c([O-])c4c(O)c(cc(O)c4c3C2=O)NC(=O)/C(C)=C\C=C\[C@H](C)[C@H](O)[C@@H](C)[C@@H](O)[C@@H](C)[C@H](OC(C)=O)[C@@H]1C.[Na+] [rifamycin SV]
[1]
  [3H]LTC4 transport into HEK-MRP2 membrane vesicles: 38 % of control
[2]
  intracellular accumulation of [3H]BSP in MDCK-MRP2/OATP8 cells: about 50 % of control
[2]; different concentrations
  effect on transcellular transport of [3H]BSP in MDCK-MRP2/OATP8 cells: inhibited more strongly

## CO[C@H]1/C=C/O[C@@]2(C)Oc3c(C)c(O)c4c(O)c(c(/C=N/N5CCN(C)CC5)c(O)c4c3C2=O)NC(=O)/C(C)=C\C=C\[C@H](C)[C@H](O)[C@@H](C)[C@@H](O)[C@@H](C)[C@H](OC(C)=O)[C@@H]1C [rifampicin]
[1]
  [3H]LTC4 transport into HEK-MRP2 membrane vesicles: 50 % of control
[2]
  intracellular accumulation of [3H]BSP in MDCK-MRP2/OATP8 cells: about 50 % of control
[3]
  transcellular transport (basolateral to apical): significantly higher transcellular transport

## O=[N+]([O-])c1ccc(Cl)c([N+](=O)[O-])c1 [CDNB, 1-chloro-2,4-dinitrobenzene]
[2]; different concentrations
  effect on intracellular accumulation of [3H]BSP in MDCK-MRP2/OATP8 cells: enhanced
  effect on transcellular transport of [3H]BSP in MDCK-MRP2/OATP8 cells: markedly inhibited
[4]
  effect on intracellular accumulation of [3H]BSP in MDCK-OATP8 cells: not inhibited
  effect on transcellular transport of [3H]BSP in MDCK-OATP8 cells: not inhibited

## C[C@]12CC[C@@H]3c4ccc(O)cc4CC[C@H]3[C@@H]1CC[C@@H]2O[C@@H]1O[C@H](C(=O)O)[C@@H](O)[C@H](O)[C@H]1O [E217bG, 17b-glucuronosyl estradiol]
[3]
  transcellular transport (basolateral to apical): much higher velocities

## CCCCC/C=C\C\C=C/C=C/C=C/[C@@H](SC[C@H](NC(=O)CC[C@H](N)C(=O)O)C(=O)NCC(=O)O)[C@@H](O)CCCC(=O)O [LTC4, leukotriene C4]
[5]
  transcellular transport (basolateral to apical): much higher velocities

## C[C@H](CCC(=O)NCCS(=O)(=O)O)[C@H]1CC[C@H]2[C@@H]3[C@H](O)C[C@@H]4C[C@H](O)CC[C@]4(C)[C@H]3C[C@H](O)[C@]12C [[^3H]cholyl taurine, cholyl taurine]
[3]
  transcellular transport (basolateral to apical): no difference in transport rates

## Cc1ccc(N(CC(=O)O)CC(=O)O)c(OCCOc2cc(-c3c4cc(Cl)c(=O)cc-4oc4cc(O)c(Cl)cc34)ccc2N(CC(=O)O)CC(=O)O)c1.N.N.N.N.N [Fluo-3, 1-[2-amino-5-(2,7-dichloro-6-hydroxy-3-oxo-3H-xanthen-9-yl)]-2-(2′-amino-5′-methyl-phenoxyl)-ethane-N,N,N′,N′-tetraacetic acid penta-ammonium salt]
[5]
  transcellular transport (basolateral to apical): higher transport rate

## Inulin carboxylic acid [[^14C]Inulin carboxylic acid]
[6]
  transcellular leakage: lower than 1%

B1: human MRP2 (Homo sapiens) (protein)
chain: MLEKFCNSTFWNSSFLDSPEADLPLCFEQTVLVWIPLGYLWLLAPWQLLHVYKSRTKRSSTTKLYLAKQVFVGFLLILAAIELALVLTEDSGQATVPAVRYTNPSLYLGTWLLVLLIQYSRQWCVQKNSWFLSLFWILSILCGTFQFQTLIRTLLQGDNSNLAYSCLFFISYGFQILILIFSAFSENNESSNNPSSIASFLSSITYSWYDSIILKGYKRPLTLEDVWEVDEEMKTKTLVSKFETHMKRELQKARRALQRRQEKSSQQNSGARLPGLNKNQSQSQDALVLEDVEKKKKKSGTKKDVPKSWLMKALFKTFYMVLLKSFLLKLVNDIFTFVSPQLLKLLISFASDRDTYLWIGYLCAILLFTAALIQSFCLQCYFQLCFKLGVKVRTAIMASVYKKALTLSNLARKEYTVGETVNLMSVDAQKLMDVTNFMHMLWSSVLQIVLSIFFLWRELGPSVLAGVGVMVLVIPINAILSTKSKTIQVKNMKNKDKRLKIMNEILSGIKILKYFAWEPSFRDQVQNLRKKELKNLLAFSQLQCVVIFVFQLTPVLVSVVTFSVYVLVDSNNILDAQKAFTSITLFNILRFPLSMLPMMISSMLQASVSTERLEKYLGGDDLDTSAIRHDCNFDKAMQFSEASFTWEHDSEATVRDVNLDIMAGQLVAVIGPVGSGKSSLISAMLGEMENVHGHITIKGTTAYVPQQSWIQNGTIKDNILFGTEFNEKRYQQVLEACALLPDLEMLPGGDLAEIGEKGINLSGGQKQRISLARATYQNLDIYLLDDPLSAVDAHVGKHIFNKVLGPNGLLKGKTRLLVTHSMHFLPQVDEIVVLGNGTIVEKGSYSALLAKKGEFAKNLKTFLRHTGPEEEATVHDGSEEEDDDYGLISSVEEIPEDAASITMRRENSFRRTLSRSSRSNGRHLKSLRNSLKTRNVNSLKEDEELVKGQKLIKKEFIETGKVKFSIYLEYLQAIGLFSIFFIILAFVMNSVAFIGSNLWLSAWTSDSKIFNSTDYPASQRDMRVGVYGALGLAQGIFVFIAHFWSAFGFVHASNILHKQLLNNILRAPMRFFDTTPTGRIVNRFAGDISTVDDTLPQSLRSWITCFLGIISTLVMICMATPVFTIIVIPLGIIYVSVQMFYVSTSRQLRRLDSVTRSPIYSHFSETVSGLPVIRAFEHQQRFLKHNEVRIDTNQKCVFSWITSNRWLAIRLELVGNLTVFFSALMMVIYRDTLSGDTVGFVLSNALNITQTLNWLVRMTSEIETNIVAVERITEYTKVENEAPWVTDKRPPPDWPSKGKIQFNNYQVRYRPELDLVLRGITCDIGSMEKIGVVGRTGAGKSSLTNCLFRILEAAGGQIIIDGVDIASIGLHDLREKLTIIPQDPILFSGSLRMNLDPFNNYSDEEIWKALELAHLKSFVASLQLGLSHEVTEAGGNLSIGQRQLLCLGRALLRKSKILVLDEATAAVDLETDNLIQTTIQNEFAHCTVITIAHRLHTIMDSDKVMVLDNGKIIECGSPEELLQIPGPFYFMAKEAGIENVNSTKF
notes: expressed in transfected cells
[7]
  Km: 12 µM
